Experimental findings from US8258215B2, “Mixed alkyl-alkylaryl-phenyl phosphite polymer additive” (Dover Chemical Corporation, priority 2010, dated 2012) are described below.

Read-outs that look alike come from different tables or passages of the source.

For data set [1] the following is noted: LLDPE; for High load Melt Flow Stability, 1st pass / High load Melt Flow Stability, 3rd pass / High load Melt Flow Stability, 5th pass: 190° C. (21.6 Kg), 900 ppm phosphite + 500 ppm Dovernox 76; for maintaining melt flow stability, in words: compared with TNPP (Table III).
Method: (§1) The polyolefin powder (polyethylene, polypropylene or high density polyethylene) is dry blended with the stabilizer formulation using a Waring blender. […] The masterbatch is then added to a preheated co-rotating twin screw extruder where the plastic is homogeneously mixed. Extrusion is typically performed at 260° C. for polyethylene (LLDPE) and polypropylene (PP) and at 250° C. for high density polyethylene (HDPE). The extruded plastic is cooled into a cold water bath, completely dried, and pelletized. The collected polymer pellets are the result of the first pass extrusion and are the starting material for all subsequent test protocols. The isolated pellets are added to the extruder repeatedly to generate the third and fifth pass material.
(§2) The melt flow rate was performed using the ASTM 1238-90b test method measured at 21.6 Kg/190° C. for LLDPE and HDPE compositions and at 2.16 Kg/230° C. for the PP compositions. The melt flow rate was complete on a Tinius Olsen extrusion plastometer.
The conditions of data set [2]: LLDPE; 900 ppm phosphite + 500 ppm Dovernox 76.
Method: as §1
(§3) Color analysis was performed on compression molded films or plaques with a Hunter Lab Ulstrascan XE machine. Observations were made with a D65 illuminant and 10° observer. Yellowness Index measurements were made in accord with ASTM D1925-70.
The conditions of data set [3]: HDPE; 230° C.; phosphite 900 ppm.
Method: as §1, §3
For data set [4] the following is noted: PP; phosphite 900 ppm.
Method: as §1, §3
For data set [5] the following is noted: PP; 230° C. (21.6 Kg); phosphite 900 ppm.
Method: as §1, §2
The conditions of data set [6]: HDPE; 190° C. (21.6 Kg); phosphite 900 ppm.
Method: as §1, §2
In a further data set the test system is estrogenic activity. The data set is described as follows: Estrogenic activity by in-vivo testing.

As to “Mixed C18 alkenyl, p-cumylphenyl phosphite [Example 4]”, in data set [1], the “High load Melt Flow Stability, 1st pass” value was determined as 18.1; the “High load Melt Flow Stability, 3rd pass” value was 14.8; the “High load Melt Flow Stability, 5th pass” value was found to be 13.4. For the same compound, in data set [2], the “YI (Yellowness Index) Color Stability, 1st pass” value was −5.8; the “YI (Yellowness Index) Color Stability, 3rd pass” value is reported as −3.8; the “YI (Yellowness Index) Color Stability, 5th pass” value was −1.4.
Consider “tris(nonylphenyl)phosphite [TNPP, reference compound]”, for which, in data set [1], the “High load Melt Flow Stability, 1st pass” value is reported as 18.1; the “High load Melt Flow Stability, 3rd pass” value stood at 16.1; the “High load Melt Flow Stability, 5th pass” value is on record as 14.4. In data set [2], the “YI (Yellowness Index) Color Stability, 1st pass” value was −3.7; the “YI (Yellowness Index) Color Stability, 3rd pass” value is given as −1.7; the “YI (Yellowness Index) Color Stability, 5th pass” value is 0.4. For the same compound, in data set [3], the “Color Stability (YI), 1st pass” value is listed as −0.4; the “Color Stability (YI), 3rd pass” value is 4.9; the “Color Stability (YI), 5th pass” value stood at 9.3. Further, in data set [4], the “Color Stability (YI), 1st pass” value came out at 14.8 and the “Color Stability (YI), 3rd pass” value came to 15.1. For the same compound, in data set [5], the “High load Melt Flow Stability, 1st pass” value turned out to be 21.4; the “High load Melt Flow Stability, 3rd pass” value was found to be 30.0; the “High load Melt Flow Stability, 5th pass” value stood at 37.0. Further, in data set [6], the “High load Melt Flow Stability, 1st pass” value was determined as 22.7; the “High load Melt Flow Stability, 3rd pass” value is reported as 22.5; the “High load Melt Flow Stability, 5th pass” value turned out to be 18.5.
As to “Mixed C12-14 alkyl, p-cumylphenyl phosphite [Example 2]”, in data set [1], the “High load Melt Flow Stability, 1st pass” value stood at 17.7; the “High load Melt Flow Stability, 3rd pass” value is on record as 15.7; the “High load Melt Flow Stability, 5th pass” value stood at 14.0; the “maintaining melt flow stability, in words” value is “performed exceptionally well”. In addition, in data set [2], the “YI (Yellowness Index) Color Stability, 1st pass” value is recorded as −5.4; the “YI (Yellowness Index) Color Stability, 3rd pass” value is on record as −3.5; the “YI (Yellowness Index) Color Stability, 5th pass” value is recorded as −1.5. Further, in data set [3], the “Color Stability (YI), 1st pass” value was found to be 1.2; the “Color Stability (YI), 3rd pass” value was found to be 5.9; the “Color Stability (YI), 5th pass” value is given as 10.2. Moreover, in data set [4], the “Color Stability (YI), 1st pass” value amounted to 7.2 and the “Color Stability (YI), 3rd pass” value is on record as 10.4. Further, in data set [5], the “High load Melt Flow Stability, 1st pass” value worked out at 24.2; the “High load Melt Flow Stability, 3rd pass” value came to 33.7; the “High load Melt Flow Stability, 5th pass” value is reported as 37.9. Further, in data set [6], the “High load Melt Flow Stability, 1st pass” value was found to be 22.7; the “High load Melt Flow Stability, 3rd pass” value worked out at 22.2; the “High load Melt Flow Stability, 5th pass” value came to 17.2.
In the case of `CC(C)(c1ccccc1)c1ccc(O)cc1` [para-cumylphenol], the “estrogenic activity compared with nonylphenol” value in the data set on estrogenic activity was “does not show comparable estrogenic activity to nonylphenol”.
In the case of “Mixed C16-18 alkyl, p-cumylphenyl phosphite [Example 6]”, in data set [1], the “High load Melt Flow Stability, 1st pass” value amounted to 18.7; the “High load Melt Flow Stability, 3rd pass” value amounted to 15.7; the “High load Melt Flow Stability, 5th pass” value came out at 13.6. In addition, in data set [2], the “YI (Yellowness Index) Color Stability, 1st pass” value is listed as −3.8; the “YI (Yellowness Index) Color Stability, 3rd pass” value was −1.1; the “YI (Yellowness Index) Color Stability, 5th pass” value worked out at 1.5.
Turning to “Mixed C12-14 Alkyl, 2,4-dicumylphenyl Phosphite [Example 10]”, in data set [1], the “High load Melt Flow Stability, 1st pass” value was 18.3; the “High load Melt Flow Stability, 3rd pass” value is reported as 15.5; the “High load Melt Flow Stability, 5th pass” value was 13.5. Further, in data set [2], the “YI (Yellowness Index) Color Stability, 1st pass” value is on record as −6.1; the “YI (Yellowness Index) Color Stability, 3rd pass” value is reported as −3.8; the “YI (Yellowness Index) Color Stability, 5th pass” value is given as −2.4.
Take “Mixed C10 alkyl, p-cumylphenyl phosphite [Example 3]”: in data set [1], the “High load Melt Flow Stability, 1st pass” value turned out to be 17.1; the “High load Melt Flow Stability, 3rd pass” value was 13.4; the “High load Melt Flow Stability, 5th pass” value is 12.2. Moreover, in data set [2], the “YI (Yellowness Index) Color Stability, 1st pass” value is −4.2; the “YI (Yellowness Index) Color Stability, 3rd pass” value is −2.9; the “YI (Yellowness Index) Color Stability, 5th pass” value is reported as −1.1.
On to “Mixed C12-18 alkyl, p-cumylphenyl phosphite [Example 7]”, for which, in data set [1], the “High load Melt Flow Stability, 1st pass” value was 18.5; the “High load Melt Flow Stability, 3rd pass” value is 16.1; the “High load Melt Flow Stability, 5th pass” value is on record as 14.6; the “maintaining melt flow stability, in words” value is reported as “performed exceptionally well”. Further, in data set [2], the “YI (Yellowness Index) Color Stability, 1st pass” value is on record as −5.5; the “YI (Yellowness Index) Color Stability, 3rd pass” value was −3.6; the “YI (Yellowness Index) Color Stability, 5th pass” value was −1.5. Moreover, in data set [3], the “Color Stability (YI), 1st pass” value was −0.6; the “Color Stability (YI), 3rd pass” value was 1.4; the “Color Stability (YI), 5th pass” value is given as 6.4. In data set [4], the “Color Stability (YI), 1st pass” value is 7.0 and the “Color Stability (YI), 3rd pass” value came out at 10.0. Also, in data set [5], the “High load Melt Flow Stability, 1st pass” value was determined as 24.2; the “High load Melt Flow Stability, 3rd pass” value amounted to 34.2; the “High load Melt Flow Stability, 5th pass” value is on record as 44.4. In data set [6], the “High load Melt Flow Stability, 1st pass” value is given as 23.6; the “High load Melt Flow Stability, 3rd pass” value is given as 22.2; the “High load Melt Flow Stability, 5th pass” value is reported as 17.1.
